{"source": "patent US20110189709A1", "about": "“METHOD FOR DETECTING HEPATIC INJURY DUE TO ANTITHYROID DRUG” (YAMASA CORPORATION, priority 2010, published 2011)", "key": {"[1]": {"test": "Rat thyrotoxicosis model (T3 administration)", "assay_type": "in vivo", "experimental": "Each of blood OCT, AST and ALT levels was measured before and after the administration."}, "[2]": {"test_system": "primary cultured hepatocytes", "details": "10 mM PTU, 1 hour and 3 hours after adding", "protocol": "Rat hepatocytes, which were isolated by collagenase prefusion, are placed into a 24-well plate coated with collagen to have 10^5 cells/well and cultured for 4 hours. After removing the cells not fixed to the well, 10 mM of PTU was added to the cells and each of the 3 cultured media prior to adding the PTU, of 1 hour after adding the PTU, and of 3 hours after adding PTU, was sampled. After 3 hours of culturing, 0.5% of Triton-X100 was added to destroy the cells and a suspended solution was obtained. OCT, ALT and AST levels in each of the sampled cultured medium and the suspended solution after cell destruction were measured. […] Based upon an activity of the suspended solution as 100%, leakage rates of OCT, AST and ALT were calculated in each cultured medium obtained by sampling."}, "[3]": {"details": "liver homogenate after 10 days T3, vs control group"}}}
{"smiles": "N[C@@H](Cc1cc(I)c(Oc2ccc(O)c(I)c2)c(I)c1)C(=O)O", "note": "[T3]", "values": [{"measurement": "ALT content in the liver", "setting": "[1]; [3]", "result": "elevated significantly"}, {"measurement": "AST content in the liver", "setting": "[1]; [3]", "result": "elevated significantly"}, {"measurement": "blood OCT level", "setting": "[1]; male Wistar rats, T3 0.1 mg/kg/day s.c. for 10 days, ELISA, control group 14.0±1.6", "result": "11.9 ± 2.5", "unit": "ng/mL"}, {"measurement": "blood ALT level", "setting": "[1]; male Wistar rats, T3 0.1 mg/kg/day s.c. for 10 days, control group 8.2±0.8", "result": "11.2±0.6", "unit": "IU/L"}, {"measurement": "blood AST level", "setting": "[1]; male Wistar rats, T3 0.1 mg/kg/day s.c. for 10 days, control group 29.0±5.1", "result": "40.0±6.51", "unit": "IU/L"}, {"measurement": "body weight", "setting": "[1]; male Wistar rats, T3 0.1 mg/kg/day s.c. for 10 days, control group 303±15.9 g", "result": "266 ± 5.8", "unit": "g"}]}
{"smiles": "CCCc1cc(=O)[nH]c(=S)[nH]1", "note": "[PTU, propylthiouracil]", "values": [{"measurement": "levels of AST, ALT and OCT in cultured medium", "setting": "[2]; FIG. 1", "result": "elevated"}, {"measurement": "OCT leakage rates compared to the ALT leakage rates", "setting": "[2]; suspended solution after cell destruction = 100%", "result": "higher"}]}
